Experiments:
Details in all cases: 48 h
[1] = system: SEM cells; assay: AUC of viability dose-response curve (% viability x log10 dose units); higher = less sensitive
Method in brief: (§1)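 Leukemia cells adapted to each medium were seeded in 1536-well plates (500 or 1000 cells/well) and given library compounds in DMSO for 48 h at 37°C. The 11 threefold doses spanned 47 μM to 0.79 nM, and CellTiter-Glo One luminescence was normalised per plate to DMSO and cell-free wells before four-parameter log-logistic fitting on log10 dose. Area under the curve was integrated with the trapezoidal rule, scaling curves above full viability and removing curves that failed quality control.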

[2] = system: NOMO1; assay: as above
Method in brief: as §1

[3] = system: P12-Ichikawa; assay: as above
Method in brief: as §1

[4] = system: SEM cells; assay: cell viability relative to DMSO control; higher = less cytotoxic
Method in brief: (§2)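 Leukemia cells (NOMO1 or SEM, 500 cells/well; P12-Ichikawa, 1000 cells/well) were seeded in 5 μl in 1536-well plates after at least four passages of adaptation to each medium. They received library compounds in DMSO by pin dosing, 11 threefold points from 47 μM to 0.79 nM. Luminescence with CellTiter-Glo One was read after 48 h at 37°C. Viability is stated per plate relative to DMSO wells, with cell-free wells as background.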

[5] = system: NOMO1; assay: as above
Method in brief: as §2

[6] = system: P12-Ichikawa; assay: as above
Method in brief: as §2

O=C1CC[C@@]2(O)[C@H]3Cc4ccc(O)c5c4[C@@]2(CCN3CC2CC2)[C@H]1O5
AUC of viability dose-response curve
Details	[1]	[2]	[3]
HPLM + 10% dialyzed FBS	469	419	459
RPMI 5 mM glucose + 10% FBS	451	411	474
RPMI 5 mM glucose + 10% dialyzed FBS	463	434	469

COC(=O)/C=C/C(=O)OC
[4], HPLM + 10% dialyzed FBS
Details	cell viability [%]
0.000781 µM	118
0.00234 µM	126
0.00702 µM	106
0.0211 µM	119
0.0632 µM	135
0.19 µM	135
0.569 µM	126
1.71 µM	124
5.12 µM	60
15.4 µM	43.8
46.1 µM	43.3

AUC of viability dose-response curve
Details	[1]	[2]	[3]
HPLM + 10% dialyzed FBS	406	433	323
RPMI 5 mM glucose + 10% FBS	354	402	368
RPMI 5 mM glucose + 10% dialyzed FBS	376	413	352

CO[C@@H]1C(N(C)C(=O)c2ccccc2)C[C@H]2O[C@]1(C)n1c3ccccc3c3c4c(c5c6ccccc6n2c5c31)C(=O)NC4=O (some centres not stated)
cell viability [%]
Details	[4]	[5]	[6]
HPLM + 10% dialyzed FBS, 0.000781 µM	70.6	82.2	84.9
HPLM + 10% dialyzed FBS, 0.00234 µM	69.4	105	88.1
HPLM + 10% dialyzed FBS, 0.00702 µM	95.4	90.2	93.3
HPLM + 10% dialyzed FBS, 0.0211 µM	89.2	106	92.3
HPLM + 10% dialyzed FBS, 0.0632 µM	75.8	98.1	91
HPLM + 10% dialyzed FBS, 0.19 µM	92.6	104	97.7
HPLM + 10% dialyzed FBS, 0.569 µM	90	98.3	99
HPLM + 10% dialyzed FBS, 1.71 µM	80.5	101	91.2
HPLM + 10% dialyzed FBS, 5.12 µM	40.3	58.4	90
HPLM + 10% dialyzed FBS, 15.4 µM	14.7	40.4	46
HPLM + 10% dialyzed FBS, 46.1 µM	7.83	10.2	25.9
RPMI 5 mM glucose + 10% FBS, 0.000781 µM	68.2	76.8	78.8
RPMI 5 mM glucose + 10% FBS, 0.00234 µM	66.2	90.2	87.8
RPMI 5 mM glucose + 10% FBS, 0.00702 µM	92.1	83.1	88.7
RPMI 5 mM glucose + 10% FBS, 0.0211 µM	91.2	91	90.9
RPMI 5 mM glucose + 10% FBS, 0.0632 µM	86.5	88.4	97.4
RPMI 5 mM glucose + 10% FBS, 0.19 µM	86.1	104	87
RPMI 5 mM glucose + 10% FBS, 0.569 µM	75.1	87	84.8
RPMI 5 mM glucose + 10% FBS, 1.71 µM	47.7	89.3	90.2
RPMI 5 mM glucose + 10% FBS, 5.12 µM	19.4	53.5	73.4
RPMI 5 mM glucose + 10% FBS, 15.4 µM	10.7	47.7	27.1
RPMI 5 mM glucose + 10% FBS, 46.1 µM	7.46	8.01	32.5
RPMI 5 mM glucose + 10% dialyzed FBS, 0.000781 µM	81.5	71.5	78.9
RPMI 5 mM glucose + 10% dialyzed FBS, 0.00234 µM	84.1	78.8	84.4
RPMI 5 mM glucose + 10% dialyzed FBS, 0.00702 µM	91.7	78	91
RPMI 5 mM glucose + 10% dialyzed FBS, 0.0211 µM	79.6	91.7	91.9
RPMI 5 mM glucose + 10% dialyzed FBS, 0.0632 µM	82.7	85.1	82.9
RPMI 5 mM glucose + 10% dialyzed FBS, 0.19 µM	102	85.4	90.1
RPMI 5 mM glucose + 10% dialyzed FBS, 0.569 µM	79.7	75.3	83
RPMI 5 mM glucose + 10% dialyzed FBS, 1.71 µM	74.4	90.6	84.8
RPMI 5 mM glucose + 10% dialyzed FBS, 5.12 µM	35.7	42.7	87.8
RPMI 5 mM glucose + 10% dialyzed FBS, 15.4 µM	13.2	49.1	23.2
RPMI 5 mM glucose + 10% dialyzed FBS, 46.1 µM	8.6	8.58	32.7

AUC of viability dose-response curve
Details	HPLM + 10% dialyzed FBS	RPMI 5 mM glucose + 10% FBS	RPMI 5 mM glucose + 10% dialyzed FBS
[1]	324	289	327
[3]	401	372	369

O=C(O)C1CCCN(CCC=C(c2ccccc2)c2ccccc2)C1 (configuration not stated)
AUC of viability dose-response curve
Details	[1]	[2]	[3]
HPLM + 10% dialyzed FBS	463	425	469
RPMI 5 mM glucose + 10% FBS	462	453	459
RPMI 5 mM glucose + 10% dialyzed FBS	464	465	474

Cl.Nc1ccn([C@@H]2O[C@H](CO)[C@@H](O)C2(F)F)c(=O)n1
AUC of viability dose-response curve
Details	[1]	[2]	[3]
HPLM + 10% dialyzed FBS	179	263	230
RPMI 5 mM glucose + 10% FBS	175	243	223
RPMI 5 mM glucose + 10% dialyzed FBS	141	248	212

CN1CC(=O)\N=C1\NC(=O)NC2=CC(=CC=C2)Cl
AUC of viability dose-response curve
Details	[1]	[2]	[3]
HPLM + 10% dialyzed FBS	448	452	442
RPMI 5 mM glucose + 10% FBS	471	453	459
RPMI 5 mM glucose + 10% dialyzed FBS	457	468	463

C[C@@H](N)c1ccc(C(=O)Nc2ccnc3[nH]ccc23)cc1
cell viability [%], [4]
Details	HPLM + 10% dialyzed FBS	RPMI 5 mM glucose + 10% FBS
0.000781 µM	99.4	115
0.00234 µM	115	135
0.00702 µM	122	124
0.0211 µM	121	155
0.0632 µM	121	145
0.19 µM	144	140
0.569 µM	136	130
1.71 µM	118	139
5.12 µM	118	114
15.4 µM	105	86.7
46.1 µM	40.7	52.5

AUC of viability dose-response curve
Details	[1]	[2]	[3]
HPLM + 10% dialyzed FBS	454	462	471
RPMI 5 mM glucose + 10% FBS	437	455	461
RPMI 5 mM glucose + 10% dialyzed FBS	455	455	466

Clc1ccccc1CN1CCc2sccc2C1
Details	cell viability [%]
[4], RPMI 5 mM glucose + 10% FBS, 0.000781 µM	94.3
[4], RPMI 5 mM glucose + 10% FBS, 0.00234 µM	148
[4], RPMI 5 mM glucose + 10% FBS, 0.00702 µM	120
[4], RPMI 5 mM glucose + 10% FBS, 0.0211 µM	139
[4], RPMI 5 mM glucose + 10% FBS, 0.0632 µM	133
[4], RPMI 5 mM glucose + 10% FBS, 0.19 µM	152
[4], RPMI 5 mM glucose + 10% FBS, 0.569 µM	135
[4], RPMI 5 mM glucose + 10% FBS, 1.71 µM	141
[4], RPMI 5 mM glucose + 10% FBS, 5.12 µM	144
[4], RPMI 5 mM glucose + 10% FBS, 15.4 µM	140
[4], RPMI 5 mM glucose + 10% FBS, 46.1 µM	33.3
[6], HPLM + 10% dialyzed FBS, 0.000781 µM	120
[6], HPLM + 10% dialyzed FBS, 0.00234 µM	121
[6], HPLM + 10% dialyzed FBS, 0.00702 µM	117
[6], HPLM + 10% dialyzed FBS, 0.0211 µM	130
[6], HPLM + 10% dialyzed FBS, 0.0632 µM	129
[6], HPLM + 10% dialyzed FBS, 0.19 µM	132
[6], HPLM + 10% dialyzed FBS, 0.569 µM	129
[6], HPLM + 10% dialyzed FBS, 1.71 µM	59.8
[6], HPLM + 10% dialyzed FBS, 5.12 µM	15.5
[6], HPLM + 10% dialyzed FBS, 15.4 µM	14.4
[6], HPLM + 10% dialyzed FBS, 46.1 µM	16.7

AUC of viability dose-response curve
Details	[1]	[2]	[3]
HPLM + 10% dialyzed FBS	453	323	348
RPMI 5 mM glucose + 10% FBS	459	315	340
RPMI 5 mM glucose + 10% dialyzed FBS	460	322	373

CCCCC[C@H](O)/C=C/[C@H]1[C@H](O)CC(=O)[C@@H]1C/C=C\CCCC(=O)O
AUC of viability dose-response curve
Details	[1]	[2]	[3]
HPLM + 10% dialyzed FBS	456	449	460
RPMI 5 mM glucose + 10% FBS	458	453	457
RPMI 5 mM glucose + 10% dialyzed FBS	460	440	457

— the supplement of paper PMC11451515
